In patent US20150148234A1, “HERBICIDE-RESISTANT SUNFLOWER PLANTS WITH MULTIPLE HERBICIDE RESISTANT ALLELES OF AHASL1 AND METHODS OF USE” (NIDERA S.A., priority 2013, published 2015):

Columns and labels:
Assay in all cases: imazapyr whole plant greenhouse test (Example 2)
Assay type in all cases: in vivo
sunflower line L2, A205V = test system: sunflower line L2, A205V
Procedure: (§1) Seeds were sown in Petri dishes and, after germination, plantlets were transplanted to pots of 10 cm of diameter in a potting media consisting of equal parts of vermiculite, soil and sand. Plants were grown in a greenhouse under natural light conditions supplemented with 400 W sodium halide lamps to provide a 16 hr daylength. Day/night temperatures were 25 and 20 ° C., respectively. At the V2-V4 stage (Schneiter & Miller (1981) Crop Sci. 21:901-903) 10 plants of each genotype were randomly assigned to each treatment consisting of eight imazapyr doses (0, 40, 80, 160, 240, 320, 400 and 480 g ai/ha, corresponding to untreated, 0.5×, 1×, 2×, 3×, 4×, 5× and 6×, respectively), and a zero-time biomass determination. Experiment was arranged as a randomized block design with a full factorial (sunflower line×treatment) arrangement of treatments and 10 replications.
(§2) On the day of herbicide application ten plants of each genotype were cut at the cotyledonal node and dried at 60° C. for 48 hrs for zero-time dried weight determination.
(§3) The remaining plants were maintained for 14 days after imazapyr treatment (DAT) and their height, Phytotoxicity Index (PI) and above ground dry biomass were determined Height was determined as the distance between the cotyledonal node and the apex of each plant. Above ground biomass data from each line were converted to biomass accumulation after application by subtracting the appropriate average zero- time biomass from each sample. Dry biomass data were converted to percentages of the untreated control plants within each line to allow direct comparisons between groups.

[1] = test system: sunflower hybrid H1 (L1 × L2), A205V
Procedure: as §1, §2, §3

[2] = test system: sunflower hybrid H2 (L3 × L4), A122T
Procedure: as §1, §2, §3

CC(C)C1(C)N=C(c2ncccc2C(=O)O)NC1=O (centres unmarked) [imazapyr]
Phytotoxicity Index (0-9) 14 days after treatment (sunflower line L2, A205V; dose 0.5 (0.5x, 40 g ai/ha)): 0
biomass accumulation 14 days after treatment, % of untreated (sunflower line L2, A205V; dose 0.5 (0.5x, 40 g ai/ha)): 99.2%
plant height 14 days after treatment, % of untreated (sunflower line L2, A205V; dose 0.5 (0.5x, 40 g ai/ha)): 99.2%
Phytotoxicity Index (0-9) 14 days after treatment (sunflower line L2, A205V; dose 1 (1x, 80 g ai/ha)): 0
biomass accumulation 14 days after treatment, % of untreated (sunflower line L2, A205V; dose 1 (1x, 80 g ai/ha)): 85.0%
plant height 14 days after treatment, % of untreated (sunflower line L2, A205V; dose 1 (1x, 80 g ai/ha)): 98.1%
Phytotoxicity Index (0-9) 14 days after treatment (sunflower line L2, A205V; dose 2 (2x, 160 g ai/ha)): 3.1
biomass accumulation 14 days after treatment, % of untreated (sunflower line L2, A205V; dose 2 (2x, 160 g ai/ha)): 58.1%
plant height 14 days after treatment, % of untreated (sunflower line L2, A205V; dose 2 (2x, 160 g ai/ha)): 63.6%
Phytotoxicity Index (0-9) 14 days after treatment (sunflower line L2, A205V; dose 3 (3x, 240 g ai/ha)): 3.9
biomass accumulation 14 days after treatment, % of untreated (sunflower line L2, A205V; dose 3 (3x, 240 g ai/ha)): 48.1%
plant height 14 days after treatment, % of untreated (sunflower line L2, A205V; dose 3 (3x, 240 g ai/ha)): 51.9%
Phytotoxicity Index (0-9) 14 days after treatment (sunflower line L2, A205V; dose 4 (4x, 320 g ai/ha)): 5.9
biomass accumulation 14 days after treatment, % of untreated (sunflower line L2, A205V; dose 4 (4x, 320 g ai/ha)): 28.8%
plant height 14 days after treatment, % of untreated (sunflower line L2, A205V; dose 4 (4x, 320 g ai/ha)): 27.5%
Phytotoxicity Index (0-9) 14 days after treatment (sunflower line L2, A205V; dose 5 (5x, 400 g ai/ha)): 6.9
biomass accumulation 14 days after treatment, % of untreated (sunflower line L2, A205V; dose 5 (5x, 400 g ai/ha)): 27.4%
plant height 14 days after treatment, % of untreated (sunflower line L2, A205V; dose 5 (5x, 400 g ai/ha)): 26.0%
Phytotoxicity Index (0-9) 14 days after treatment (sunflower line L2, A205V; dose 6 (6x, 480 g ai/ha)): 6.7
biomass accumulation 14 days after treatment, % of untreated (sunflower line L2, A205V; dose 6 (6x, 480 g ai/ha)): 24.9%
plant height 14 days after treatment, % of untreated (sunflower line L2, A205V; dose 6 (6x, 480 g ai/ha)): 29.3%
Phytotoxicity Index (0-9) 14 days after treatment ([1]; dose 0.5 (0.5x, 40 g ai/ha)): 0
biomass accumulation 14 days after treatment, % of untreated ([1]; dose 0.5 (0.5x, 40 g ai/ha)): 95.0%
plant height 14 days after treatment, % of untreated ([1]; dose 0.5 (0.5x, 40 g ai/ha)): 99.5%
Phytotoxicity Index (0-9) 14 days after treatment ([1]; dose 1 (1x, 80 g ai/ha)): 0
biomass accumulation 14 days after treatment, % of untreated ([1]; dose 1 (1x, 80 g ai/ha)): 89.6%
plant height 14 days after treatment, % of untreated ([1]; dose 1 (1x, 80 g ai/ha)): 99.5%
Phytotoxicity Index (0-9) 14 days after treatment ([1]; dose 2 (2x, 160 g ai/ha)): 1.8
biomass accumulation 14 days after treatment, % of untreated ([1]; dose 2 (2x, 160 g ai/ha)): 75.5%
plant height 14 days after treatment, % of untreated ([1]; dose 2 (2x, 160 g ai/ha)): 78.6%
Phytotoxicity Index (0-9) 14 days after treatment ([1]; dose 3 (3x, 240 g ai/ha)): 6.4
biomass accumulation 14 days after treatment, % of untreated ([1]; dose 3 (3x, 240 g ai/ha)): 60.4%
plant height 14 days after treatment, % of untreated ([1]; dose 3 (3x, 240 g ai/ha)): 48.4%
Phytotoxicity Index (0-9) 14 days after treatment ([1]; dose 4 (4x, 320 g ai/ha)): 8.0
biomass accumulation 14 days after treatment, % of untreated ([1]; dose 4 (4x, 320 g ai/ha)): 46.5%
plant height 14 days after treatment, % of untreated ([1]; dose 4 (4x, 320 g ai/ha)): 28.9%
Phytotoxicity Index (0-9) 14 days after treatment ([1]; dose 5 (5x, 400 g ai/ha)): 8.9
biomass accumulation 14 days after treatment, % of untreated ([1]; dose 5 (5x, 400 g ai/ha)): 38.9%
plant height 14 days after treatment, % of untreated ([1]; dose 5 (5x, 400 g ai/ha)): 25.3%
Phytotoxicity Index (0-9) 14 days after treatment ([1]; dose 6 (6x, 480 g ai/ha)): 9.0
biomass accumulation 14 days after treatment, % of untreated ([1]; dose 6 (6x, 480 g ai/ha)): 33.9%
plant height 14 days after treatment, % of untreated ([1]; dose 6 (6x, 480 g ai/ha)): 27.1%
Phytotoxicity Index (0-9) 14 days after treatment ([2]; dose 0.5 (0.5x, 40 g ai/ha)): 0.5
biomass accumulation 14 days after treatment, % of untreated ([2]; dose 0.5 (0.5x, 40 g ai/ha)): 100%
plant height 14 days after treatment, % of untreated ([2]; dose 0.5 (0.5x, 40 g ai/ha)): 99.2%
Phytotoxicity Index (0-9) 14 days after treatment ([2]; dose 1 (1x, 80 g ai/ha)): 0.5
biomass accumulation 14 days after treatment, % of untreated ([2]; dose 1 (1x, 80 g ai/ha)): 97.2%
plant height 14 days after treatment, % of untreated ([2]; dose 1 (1x, 80 g ai/ha)): 98.6%
Phytotoxicity Index (0-9) 14 days after treatment ([2]; dose 2 (2x, 160 g ai/ha)): 0.5
biomass accumulation 14 days after treatment, % of untreated ([2]; dose 2 (2x, 160 g ai/ha)): 97.9%
plant height 14 days after treatment, % of untreated ([2]; dose 2 (2x, 160 g ai/ha)): 100.3%
Phytotoxicity Index (0-9) 14 days after treatment ([2]; dose 3 (3x, 240 g ai/ha)): 0.5
biomass accumulation 14 days after treatment, % of untreated ([2]; dose 3 (3x, 240 g ai/ha)): 98.2%
plant height 14 days after treatment, % of untreated ([2]; dose 3 (3x, 240 g ai/ha)): 99.6%
Phytotoxicity Index (0-9) 14 days after treatment ([2]; dose 4 (4x, 320 g ai/ha)): 0.5
biomass accumulation 14 days after treatment, % of untreated ([2]; dose 4 (4x, 320 g ai/ha)): 97.8%
